Reference: US20240101544A1, “INHIBITORS OF QPCTL AND QPCT” (priority 2022, published 2024)

Key:
QPCTL [1] = biological target: T1, QPCTL (Homo sapiens (Human), UniProt Q9NXS2); test: QPCTL Enzymatic Activity Assay (coupled-enzyme fluorescent assay, H-Gln-AMC substrate); format: biochemical; conditions: recombinant truncated human QPCTL 10-12 nM, 10 μM H-Gln-AMC; read-out: QPCTL Inhibition IC50
Target sequence in this assay (Q9NXS2 53-382): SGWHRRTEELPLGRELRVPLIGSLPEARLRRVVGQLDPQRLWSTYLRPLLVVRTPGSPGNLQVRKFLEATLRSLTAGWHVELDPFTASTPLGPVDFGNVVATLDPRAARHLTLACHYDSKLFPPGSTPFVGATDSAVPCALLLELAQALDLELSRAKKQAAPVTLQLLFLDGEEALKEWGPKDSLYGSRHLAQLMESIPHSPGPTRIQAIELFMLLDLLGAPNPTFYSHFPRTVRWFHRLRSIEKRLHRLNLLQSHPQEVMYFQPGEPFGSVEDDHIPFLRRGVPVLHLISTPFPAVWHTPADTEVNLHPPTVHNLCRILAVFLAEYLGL

QPCTL [2] = biological target: T1, QPCTL; test: Inhibition of Cellular QPCTL Activity - Imaging Assay, CC2C6 anti-CD47 staining of DLD-1 cells; format: cell-based; conditions: 72 hours, CC2C6 anti-CD47 high-content imaging
Procedure: Inhibition of Cellular QPCTL Activity—Imaging Assay
The cells were incubated for 72 hours at 37° C. and 5% CO2. […] After primary antibody staining, the cells were fixed with 4% paraformaldehyde in the incubation buffer for 15 minutes at room temperature. […] Cells were analyzed on a ImageXpress Pico Automated Cell Imaging System (Molecular Devices) using 10× objective (3×3 fields).
Target sequence in this assay (Q9NXS2 whole entry, the tested form may be a part): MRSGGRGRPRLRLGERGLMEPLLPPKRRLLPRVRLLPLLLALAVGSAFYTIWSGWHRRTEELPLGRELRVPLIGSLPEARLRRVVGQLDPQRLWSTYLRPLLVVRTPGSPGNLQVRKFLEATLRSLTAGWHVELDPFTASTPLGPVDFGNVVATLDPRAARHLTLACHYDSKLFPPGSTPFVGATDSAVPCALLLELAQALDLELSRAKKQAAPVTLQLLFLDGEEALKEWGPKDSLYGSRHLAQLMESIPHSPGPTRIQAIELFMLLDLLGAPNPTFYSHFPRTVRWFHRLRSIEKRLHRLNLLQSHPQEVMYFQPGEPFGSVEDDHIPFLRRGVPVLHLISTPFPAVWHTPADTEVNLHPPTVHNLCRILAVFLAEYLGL

QPCT (rhQPCT) = QPCT (rhQPCT) (Homo sapiens (Human), UniProt Q16769); test: QPCT Enzymatic Activity Assay (coupled-enzyme fluorescent assay, H-Gln-AMC substrate); format: biochemical; conditions: rhQPCT 10-12 nM, 10 μM H-Gln-AMC; read-out: QPCT Inhibition IC50
Outline: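 Coupled assay: recombinant human QPCT converts H-Gln-AMC (10 μM final) to pyroglutamyl-AMC, 60 min at 37 °C, stopped by boiling; PGPEP-1 then releases AMC.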

Sequence of QPCT (rhQPCT) (Q16769 29-361): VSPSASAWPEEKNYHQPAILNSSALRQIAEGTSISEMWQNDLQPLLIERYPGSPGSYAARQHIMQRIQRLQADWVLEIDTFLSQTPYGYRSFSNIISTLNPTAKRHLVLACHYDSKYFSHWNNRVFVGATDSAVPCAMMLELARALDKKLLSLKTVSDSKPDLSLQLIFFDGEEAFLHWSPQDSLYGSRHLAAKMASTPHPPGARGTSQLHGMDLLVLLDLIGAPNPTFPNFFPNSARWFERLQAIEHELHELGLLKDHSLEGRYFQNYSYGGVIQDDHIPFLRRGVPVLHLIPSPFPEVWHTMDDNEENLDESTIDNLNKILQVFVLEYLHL

IC50 (QPCTL [1]) [µM]	IC50 (QPCTL [2]) [µM]	IC50 (QPCT (rhQPCT)) [µM]	Structure (SMILES)
< 0.1	1 to 10	< 0.1	Cn1cnnc1C1CCN(c2c(-c3ccc(F)nc3)ccc(N3CCNCC3)c2C#N)CC1 [Example 85, 3-(6-fluoropyridin-3-yl)-2-(4-(4-methyl-4H-1,2,4-triazol-3-yl)piperidin-1-yl)-6-(piperazin-1-yl)benzonitrile]
< 0.1	< 0.1	< 0.1	Cn1cnnc1C1CCN(c2c(C#N)cccc2-c2cncc(B(O)O)c2)CC1 [Example 117, (5-(3-cyano-2-(4-(4-methyl-4H-1,2,4-triazol-3-yl)piperidin-1-yl)phenyl)pyridin-3-yl)boronic acid]
< 0.1	< 0.1	< 0.1	Cn1cnnc1N1CCN(c2c(C#N)cccc2-c2ccc(F)nc2)CC1 [Example 106, 3-(6-fluoropyridin-3-yl)-2-(4-(4-methyl-4H-1,2,4-triazol-3-yl)piperazin-1-yl)benzonitrile]
< 0.1	< 0.1	< 0.1	Cn1cnnc1C1CCN(c2c(-c3ccc(F)nc3)ccc(C3CC3)c2C#N)CC1 [Example 68, 6-cyclopropyl-3-(6-fluoropyridin-3-yl)-2-(4-(4-methyl-4H-1,2,4-triazol-3-yl)piperidin-1-yl)benzonitrile]
< 0.1	< 0.1	< 0.1	Cn1cnnc1C1CCN(c2c(C#N)cccc2-c2ccc(O)c(C=O)c2)CC1 [Example 109, 3′-formyl-4′-hydroxy-2-(4-(4-methyl-4H-1,2,4-triazol-3-yl)piperidin-1-yl)-[1,1′-biphenyl]-3-carbonitrile]
< 0.1	< 0.1	< 0.1	Cn1cnnc1C1CCN(c2c(-c3ccc(F)nc3)ccc(-c3cc[nH]n3)c2C#N)CC1 [Example 45, 3-(6-fluoropyridin-3-yl)-2-(4-(4-methyl-4H-1,2,4-triazol-3-yl)piperidin-1-yl)-6-(1H-pyrazol-3-yl)benzonitrile]
< 0.1	< 0.1	< 0.1	COc1cc(F)c(-c2ccc(F)nc2)c(N2CCC(c3nncn3C)CC2)c1C#N [Example 107, 4-fluoro-3-(6-fluoropyridin-3-yl)-6-methoxy-2-(4-(4-methyl-4H-1,2,4-triazol-3-yl)piperidin-1-yl)benzonitrile]
< 0.1	< 0.1	< 0.1	Cn1cnnc1C1CCN(c2c(-c3ccc(F)nc3)ccnc2C#N)CC1 [Example 132, 6-fluoro-3′-(4-(4-methyl-4H-1,2,4-triazol-3-yl)piperidin-1-yl)-[3,4′-bipyridine]-2′-carbonitrile]
< 0.1	0.1 to 1	< 0.1	Cn1cnnc1C1CCN(c2c(C#N)cccc2-c2cncc(Cl)c2)CC1 [Example 115, 3-(5-chloropyridin-3-yl)-2-(4-(4-methyl-4H-1,2,4-triazol-3-yl)piperidin-1-yl)benzonitrile]
< 0.1	< 0.1	< 0.1	Cc1ccc(-c2ccc(F)nc2)c(N2CCC(c3nncn3C)CC2)c1C#N [Example 67, 3-(6-fluoropyridin-3-yl)-6-methyl-2-(4-(4-methyl-4H-1,2,4-triazol-3-yl)piperidin-1-yl)benzonitrile]
< 0.1	< 0.1	< 0.1	Cn1cnnc1C1CCN(c2c(-c3ccc(F)nc3)ccc(-c3cnn(C4CC4)c3)c2C#N)CC1 [Example 63, 6-(1-cyclopropyl-1H-pyrazol-4-yl)-3-(6-fluoropyridin-3-yl)-2-(4-(4-methyl-4H-1,2,4-triazol-3-yl)piperidin-1-yl)benzonitrile]
< 0.1	< 0.1	< 0.1	Cn1ccc(-c2ccc(-c3ccc(F)nc3)c(N3CCC(c4nncn4C)CC3)c2C#N)n1 [Example 43, 3-(6-fluoropyridin-3-yl)-6-(1-methyl-1H-pyrazol-3-yl)-2-(4-(4-methyl-4H-1,2,4-triazol-3-yl)piperidin-1-yl)benzonitrile]
< 0.1	> 10	0.1 to 1	Cc1cc(-c2ccc(OCCN(C)C)c(C#N)c2N2CCC(c3nncn3C)CC2)cnn1 [Example 62, 6-(2-(dimethylamino)ethoxy)-2-(4-(4-methyl-4H-1,2,4-triazol-3-yl)piperidin-1-yl)-3-(6-methylpyridazin-4-yl)benzonitrile]
< 0.1	< 0.1	< 0.1	Cn1cnnc1C1CCN(c2c(-c3ccc(F)nc3)ccc(C3COC3)c2C#N)CC1 [Example 108, 3-(6-fluoropyridin-3-yl)-2-(4-(4-methyl-4H-1,2,4-triazol-3-yl)piperidin-1-yl)-6-(oxetan-3-yl)benzonitrile]
< 0.1	1 to 10	< 0.1	CNCCN(C)c1ccc(-c2ccc(F)nc2)c(N2CCC(c3nncn3C)CC2)c1C#N [Example 83, 3-(6-fluoropyridin-3-yl)-6-(methyl(2-(methylamino)ethyl)amino)-2-(4-(4-methyl-4H-1,2,4-triazol-3-yl)piperidin-1-yl)benzonitrile]
< 0.1	1 to 10	< 0.1	COc1ccc(-c2cnc3nccn3c2)c(N2CCC(c3nncn3C)CC2)c1C#N [Example 94, 3-(imidazo[1,2-a]pyrimidin-6-yl)-6-methoxy-2-(4-(4-methyl-4H-1,2,4-triazol-3-yl)piperidin-1-yl)benzonitrile]
< 0.1	1 to 10	< 0.1	Cn1cnnc1C1CCN(c2c(C#N)cccc2-c2ccc3c(c2)COB3O)CC1 [Example 123, 3-(1-hydroxy-1,3-dihydrobenzo[c][1,2]oxaborol-5-yl)-2-(4-(4-methyl-4H-1,2,4-triazol-3-yl)piperidin-1-yl)benzonitrile]
< 0.1	< 0.1	< 0.1	Cn1cnnc1C1CCN(c2c(-c3ccc(F)nc3)ccc(N3CC(O)C3)c2C#N)CC1 [Example 95, 3-(6-fluoropyridin-3-yl)-6-(3-hydroxyazetidin-1-yl)-2-(4-(4-methyl-4H-1,2,4-triazol-3-yl)piperidin-1-yl)benzonitrile]
< 0.1	< 0.1	< 0.1	Cn1cnnc1C1CCN(c2c(-c3ccc(F)nc3)ccc(NC3CC3)c2C#N)CC1 [Example 81, 6-(cyclopropylamino)-3-(6-fluoropyridin-3-yl)-2-(4-(4-methyl-4H-1,2,4-triazol-3-yl)piperidin-1-yl)benzonitrile]
< 0.1	< 0.1	< 0.1	COCCOc1ccc(-c2ccc(F)nc2)c(N2CCC(c3nncn3C)CC2)c1C#N [Example 86, 3-(6-fluoropyridin-3-yl)-6-(2-methoxyethoxy)-2-(4-(4-methyl-4H-1,2,4-triazol-3-yl)piperidin-1-yl)benzonitrile]
< 0.1	< 0.1	< 0.1	Cn1cnnc1C1CCN(c2c(-c3ccc(F)nc3)ccc(N)c2C#N)CC1 [Example 78, 6-amino-3-(6-fluoropyridin-3-yl)-2-(4-(4-methyl-4H-1,2,4-triazol-3-yl)piperidin-1-yl)benzonitrile]
< 0.1	< 0.1	< 0.1	Cn1cnnc1C1CCN(c2c(-c3ccc(F)nc3)ccc(OCC3CC3)c2C#N)CC1 [Example 77, 6-(cyclopropylmethoxy)-3-(6-fluoropyridin-3-yl)-2-(4-(4-methyl-4H-1,2,4-triazol-3-yl)piperidin-1-yl)benzonitrile]
< 0.1	< 0.1	< 0.1	CN1CCC(Oc2ccc(-c3ccc(F)nc3)c(N3CCC(c4nncn4C)CC3)c2C#N)C1 (single isomer, unassigned) [Example 90, 3-(6-fluoropyridin-3-yl)-2-(4-(4-methyl-4H-1,2,4-triazol-3-yl)piperidin-1-yl)-6-((1-methylpyrrolidin-3-yl)oxy)benzonitrile]
< 0.1	< 0.1	< 0.1	Cn1cnnc1C1CCN(c2c(-c3ccc(F)nc3)ccc(OC3CCOC3)c2C#N)CC1 (single isomer, unassigned) [Example 88, 3-(6-fluoropyridin-3-yl)-2-(4-(4-methyl-4H-1,2,4-triazol-3-yl)piperidin-1-yl)-6-((tetrahydrofuran-3-yl)oxy)benzonitrile]
< 0.1	0.1 to 1	< 0.1	CN1CCC(Oc2ccc(-c3ccc(F)nc3)c(N3CCC(c4nncn4C)CC3)c2C#N)C1 (single isomer, unassigned) [Example 91, 3-(6-fluoropyridin-3-yl)-2-(4-(4-methyl-4H-1,2,4-triazol-3-yl)piperidin-1-yl)-6-((1-methylpyrrolidin-3-yl)oxy)benzonitrile]
< 0.1	< 0.1	< 0.1	Cn1cnnc1C1CCN(c2c(C#N)cc(C(F)(F)F)cc2-c2ccc(F)nc2)CC1 [Example 70, 3-(6-fluoropyridin-3-yl)-2-(4-(4-methyl-4H-1,2,4-triazol-3-yl)piperidin-1-yl)-5-(trifluoromethyl)benzonitrile]
< 0.1	< 0.1	< 0.1	Cn1cnnc1C1CCN(c2c(-c3ccc(F)nc3)ccc(N3CCOCC3)c2C#N)CC1 [Example 87, 3-(6-fluoropyridin-3-yl)-2-(4-(4-methyl-4H-1,2,4-triazol-3-yl)piperidin-1-yl)-6-morpholinobenzonitrile]
